Tests used:
Format in all cases: in vivo
[1] = test system: Bak1, Pdcd5, Casp2, Tradd, Trp53inp1 (mouse gene of Tp53inp1), Casp3, or Casp12; assay: Serum level of apoptosis pathway genes in a human subject after Tempol treatment; settings: 1500 mg Tempol per day for 180 days
Method: (§1) A 70-kilogram human subject is identified for increased expression level of Bak1, Pdcd5, Casp2, Tradd, Trp53inp1 (mouse gene of Tp53inp1), Casp3, or Casp12. The human subject is administered a dose of 1500 mg of Tempol per day for 180 days. This may be administered in a single dose, or may be administered as a number of smaller doses over a 24-hour period: for example, three 500-mg doses at eight-hour intervals. Following treatment, the serum level of Bak1, Pdcd5, Casp2, Tradd, Trp53inp1 (mouse gene of Tp53inp1), Casp3, or Casp12, is reduced.
as §1, with “decreased immune response to a bacterial infection.” for “increased expression level of Bak1, Pdcd5, Casp2, Tradd, Trp53inp1 (mouse gene of Tp53inp1), Casp3, or Casp12.”
as §1, with “identified as at risk” for “identified”, “a psychiatric condition.” for “increased expression level of Bak1, Pdcd5, Casp2, Tradd, Trp53inp1 (mouse gene of Tp53inp1), Casp3, or Casp12.”
as §1, with “identified as risk” for “identified”, “stress-induced apoptosis.” for “increased expression level of Bak1, Pdcd5, Casp2, Tradd, Trp53inp1 (mouse gene of Tp53inp1), Casp3, or Casp12.”
(§2) A 70-kilogram human subject is identified as at risk for a disease associated with an increased level of apoptosis. The human subject is administered a dose of 1500 mg of Tempol per day for 180 days. This may be administered in a single dose, or may be administered as a number of smaller doses over a 24-hour period: for example, three 500-mg doses at eight-hour intervals. Following treatment, the serum level of Bak1, Pdcd5, Casp2, Tradd, Trp53inp1 (mouse gene of Tp53inp1), Casp3, or Casp12, is reduced.
as §1, with “identified as at risk of a disease having an” for “identified for”
as §2, with “of Parkinson's” for “for a”, “[…].” for “associated with an increased level of apoptosis.”

Tradd = assay: Gene expression in cardiac tissue of Tempol-fed mice, chip-based microarray
Method: (§3) To assess the effects of Tempol on gene expression, Tempol was administered to experimental mice at a dose of 5 mg/g of food from 14 months to 31 months after birth. Mice receiving the same food without the addition of Tempol were used as a negative control. At the age of 31 months, the experimental animals were sacrificed and the hearts were surgically removed. The expression of a broad spectrum of genes in the cardiac tissue was assessed using chip-based microarray technology. Such chips are well known in the art and are widely used to assess gene expression.

Casp2 = assay: as above
Method: as §3

Casp12 = assay: as above
Method: as §3

[2] = test system: Trp53inp1 (mouse gene of Tp53inp1); assay: as above
Method: as §3

Pdcd5 = assay: as above
Method: as §3

Casp3 = assay: as above
Method: as §3

Bak1 = assay: as above
Method: as §3

[3] = Tempol 5 mg/g of food vs control mice
[4] = Tempol-treated vs control mice, P-value 0.01
[5] = Tempol-treated vs control mice, P-value 0.03
[6] = Tempol-treated vs control mice, P-value 0.00

SMILES: CC1(C)CC(O)CC(C)(C)N1[O] [Tempol, 4-hydroxy-2,2,6,6-tetramethylpiperidine-1-oxyl]
- serum level of Bak1, Pdcd5, Casp2, Tradd, Trp53inp1, Casp3, or Casp12 following treatment ([1]; Example 2: 70-kilogram human subject with increased expression level of the gene): reduced
- serum level of Bak1, Pdcd5, Casp2, Tradd, Trp53inp1, Casp3, or Casp12 following treatment ([1]; Example 3: 70-kilogram human subject with decreased immune response to a bacterial infection): reduced
- serum level of Bak1, Pdcd5, Casp2, Tradd, Trp53inp1, Casp3, or Casp12 following treatment ([1]; Example 4: 70-kilogram human subject at risk for a psychiatric condition): reduced
- serum level of Bak1, Pdcd5, Casp2, Tradd, Trp53inp1, Casp3, or Casp12 following treatment ([1]; Example 5: 70-kilogram human subject at risk for stress-induced apoptosis): reduced
- serum level of Bak1, Pdcd5, Casp2, Tradd, Trp53inp1, Casp3, or Casp12 following treatment ([1]; Example 6: 70-kilogram human subject at risk for a disease associated with an increased level of apoptosis): reduced
- serum level of Bak1, Pdcd5, Casp2, Tradd, Trp53inp1, Casp3, or Casp12 following treatment ([1]; Example 7: 70-kilogram human subject at risk of a disease having an increased expression level of the gene): reduced
- serum level of Bak1, Pdcd5, Casp2, Tradd, Trp53inp1, Casp3, or Casp12 following treatment ([1]; Example 8: 70-kilogram human subject at risk of Parkinson's disease): reduced
- Tradd expression change, in words (Tradd; [3]): statistically significant decrease in expression
- Tradd fold change (Tradd; [4]): −1.23
- Tradd expression, Tempol-treated mice (Tradd; age 31 months, Tempol 5 mg/g of food from 14 to 31 months, control mice 288): 233
- Casp2 expression change, in words (Casp2; [3]): statistically significant decrease in expression
- Casp2 fold change (Casp2; [5]): −1.20
- Casp2 expression, Tempol-treated mice (Casp2; age 31 months, Tempol 5 mg/g of food from 14 to 31 months, control mice 316): 261
- Casp12 expression change, in words (Casp12; [3]): statistically significant decrease in expression
- Casp12 fold change (Casp12; Tempol-treated vs control mice, P-value 0.02): −1.61
- Casp12 expression, Tempol-treated mice (Casp12; age 31 months, Tempol 5 mg/g of food from 14 to 31 months, control mice 701): 436
- Trp53inp1 expression change, in words [2, 3]: statistically significant decrease in expression
- Trp53inp1 fold change [2, 6]: −1.33
- Trp53inp1 expression, Tempol-treated mice ([2]; age 31 months, Tempol 5 mg/g of food from 14 to 31 months, control mice 1107): 830
- Pdcd5 expression change, in words (Pdcd5; [3]): statistically significant decrease in expression
- Pdcd5 fold change (Pdcd5; [5]): −1.15
- Pdcd5 expression, Tempol-treated mice (Pdcd5; age 31 months, Tempol 5 mg/g of food from 14 to 31 months, control mice 2863): 2503
- Casp3 expression change, in words (Casp3; [3]): statistically significant decrease in expression
- Casp3 fold change (Casp3; [6]): −1.47
- Casp3 expression, Tempol-treated mice (Casp3; age 31 months, Tempol 5 mg/g of food from 14 to 31 months, control mice 604): 414
- Bak1 expression change, in words (Bak1; [3]): statistically significant decrease in expression
- Bak1 fold change (Bak1; [4]): −1.15
- Bak1 expression, Tempol-treated mice (Bak1; age 31 months, Tempol 5 mg/g of food from 14 to 31 months, control mice 260): 226

From US9700550B1, “Decreasing expression level of apoptosis-related genes by treating a human subject with a nitroxide” (priority 2016, dated 2017)
